Reference: PMC10227015, “From a drug repositioning to a structure-based drug design approach to tackle acute lymphoblastic leukemia” (Nature Communications, 2023)
Where two headings read alike, the source gives them in different places.

Columns and labels:
dCK-C3S-S74E [1] = test: Enzymatic assay (PK/LDH coupled), dC phosphorylation by dCK in the presence of UTP; assay type: biochemical, human; details: presence of UTP
Description: (§1) For enzymatic assays, cells were re-suspended in 20 mM TRIS, pH 8 500 mM NaCl, 0.1% BRIJ-35 and 5% glycerol buffer and one EDTA free anti-protease tablet was added (Roche). After sonication and centrifugation (30,000 × g), the supernatant was loaded on a 5 ml HisTrap FF column (GE healthcare) pre-equilibrated with 20 mM TRIS, pH 8, 500 mM NaCl, 0.01% BRIJ-35 and 5% glycerol buffer. The protein was then eluted by the same buffer containing 250 mM imidazole after a wash containing 25 mM imidazole. The eluted fraction was applied on a HiPrep 26/10 desalting column (GE healthcare) pre-equilibrated with 20 mM TRIS, pH 8, 500 mM NaCl, 5% glycerol and 0.01% BRIJ-35 buffer. Finally, protein in a 20% glycerol buffer was flash frozen in liquid nitrogen and stored at −80 °C.
Kinetic analyses were performed using a spectrophotometric continuous enzymatic-coupled assay using pyruvate kinase (PK) and lactate dehydrogenase (LDH). […] UTP is the physiological dCK-phosphate donor[46] and it was used to determine activation versus inhibition behavior. ATP was used to calculate IC50 values, as it allows the analysis of a dose response curve. The PK/LDH coupled assay is based on the conversion of phosphoenolpyruvate (PEP) and UDP/ADP to pyruvate and UTP/ATP by PK and the subsequent conversion of pyruvate to lactate by LDH. The latter step requires NADH, which is oxidized to NAD^+. NADH is fluorescent (excitation at 337 nm and emission at 460 nm), but not NAD^+. Thus, the measurement of fluorescent decrease at 460 nm is a measure of kinase activity. dCK experiments were performed in a buffer containing 50 mM HEPES, pH 7.5, 5 mM MgCl2, 1 mM DTT, and 100 mM KCl. Buffer was supplemented with PK (0.01 U/µl), LDH (0.02 U/µl), PEP (1 mM), NADH (300 µM) and compounds at varying concentrations. For UTP assays, protein concentration was 2 μM, substrate 200 µM (dC), and UTP 1 mM. For ATP assays, protein concentration was 100 nM (and 50 nM when indicated), substrate 100 µM (dC), and ATP 1 mM. All measurements were performed on a microplate reader Pherastar FS (BMG Labtech). All assays were performed in triplicate and each experiment was performed at least twice. The data are presented as mean ± SD. The results were plotted as kinetics and the velocity was determined for each condition as the slope of the linear range of the curve. For each compound concentration, the velocity of the reaction (according to V = d[P]/dt) was normalized with respect to the drug free control and velocity ratios were compared. IC50 values corresponding to enzymatic inhibition in ATP were calculated by nonlinear regression curves using GraphPad Prism software 9.4.0.

dCK-C3S-S74E [2] = test: Enzymatic assay (PK/LDH coupled), dC phosphorylation by dCK in the presence of ATP; assay type: biochemical, human; details: presence of ATP, read-out: ENZYMATIC ASSAY IC50
Description: as §1
Kinetic analyses were performed using a spectrophotometric continuous enzymatic-coupled assay using pyruvate kinase (PK) and lactate dehydrogenase (LDH). Analysis of the effect of compounds on dCK-C3S-S74E activity was performed using dC as substrate and UTP/ATP as phosphate donors. UTP is the physiological dCK-phosphate donor[46] and it was used to determine activation versus inhibition behavior. ATP was used to calculate IC50 values, as it allows the analysis of a dose response curve. The PK/LDH coupled assay is based on the conversion of phosphoenolpyruvate (PEP) and UDP/ADP to pyruvate and UTP/ATP by PK and the subsequent conversion of pyruvate to lactate by LDH. The latter step requires NADH, which is oxidized to NAD^+. NADH is fluorescent (excitation at 337 nm and emission at 460 nm), but not NAD^+. Thus, the measurement of fluorescent decrease at 460 nm is a measure of kinase activity. dCK experiments were performed in a buffer containing 50 mM HEPES, pH 7.5, 5 mM MgCl2, 1 mM DTT, and 100 mM KCl. Buffer was supplemented with PK (0.01 U/µl), LDH (0.02 U/µl), PEP (1 mM), NADH (300 µM) and compounds at varying concentrations. For UTP assays, protein concentration was 2 μM, substrate 200 µM (dC), and UTP 1 mM. For ATP assays, protein concentration was 100 nM (and 50 nM when indicated), substrate 100 µM (dC), and ATP 1 mM. All measurements were performed on a microplate reader Pherastar FS (BMG Labtech). All assays were performed in triplicate and each experiment was performed at least twice. The data are presented as mean ± SD. The results were plotted as kinetics and the velocity was determined for each condition as the slope of the linear range of the curve. For each compound concentration, the velocity of the reaction (according to V = d[P]/dt) was normalized with respect to the drug free control and velocity ratios were compared. IC50 values corresponding to enzymatic inhibition in ATP were calculated by nonlinear regression curves using GraphPad Prism software 9.4.0.

CCRF-CEM cell line = test: dCK cellular assay: CCRF-CEM proliferation in the presence of dT and dC; assay type: cell-based, human; details: Homo sapiens
Description: The dCK cellular assay was set up to assess the ability to inhibit dCK activity in a cellular model. The model was developed with a T-cell acute lymphoblastic leukemia cell line (CCRF-CEM), because of its high dependence on the SP, thus on dCK activity. Cellular assays were performed to assess the inhibition of cell proliferation under two conditions: (i) in the presence of the compound alone to determine the nonspecific effect on cells, independent of dCK (nonspecific toxicity) and (ii) in the presence of an inhibitor of the DNP to determine the ability of compounds to inhibit dCK and decrease tumor proliferation (activity on dCK). The inhibitor of the DNP chosen for the experiments was thymidine (dT), a physiological inhibitor of ribonucleotide reductase which arrests cell proliferation in phase S. The dTTP produced via thymidine kinase from dT acts as a RNR inhibitor by an allosteric regulation of the R1 subunit. The addition of the nucleoside deoxycytidine (dC) in the medium allows the rescue of cell proliferation by passing only through the salvage pathway, mediated by dCK. dC needs to be added exogenously to mimic physiological concentrations because it is not present in the cell culture medium, on the contrary to mouse model, in which it is naturally present in the serum. Therefore, cell proliferation under these conditions (+dT +dC) is dCK dependent and it is possible to determine the IC50 of dCK inhibitors on the inhibition of cell proliferation. Results are expressed as % cell proliferation relative to the control with DMSO.
The amount of reduced dye formed by metabolically active cells was quantified by its fluorescence measured at 560 nm (excitation) and 590 nm (emission) in a microplate reader (CLARIOstar, BMG Labtech). A blank well without cells was used as a background control. Each experiment was performed at least three times (with technical triplicates) and data are presented as the mean ± SD.

dCK-C3S-S74E [3] = test: Thermal shift assay (TSA); details: for THERMAL SHIFT ASSAY +Tm (°): mean ± SD; for ΔTm (º) (TSA): Figure 2a, mean
[4] = read-out: dCK CELLULAR ASSAY IC50 (nM), CCRF-CEM, 200 µM dT and 1 µM dC, read-out: dCK […] ASSAY IC50
[5] = Figure 2a, CCRF-CEM cell line, mean, read-out: IC50 (nM) (Cell Prolif)

Chain of dCK-C3S-S74E (P27707 whole entry S74E, form open): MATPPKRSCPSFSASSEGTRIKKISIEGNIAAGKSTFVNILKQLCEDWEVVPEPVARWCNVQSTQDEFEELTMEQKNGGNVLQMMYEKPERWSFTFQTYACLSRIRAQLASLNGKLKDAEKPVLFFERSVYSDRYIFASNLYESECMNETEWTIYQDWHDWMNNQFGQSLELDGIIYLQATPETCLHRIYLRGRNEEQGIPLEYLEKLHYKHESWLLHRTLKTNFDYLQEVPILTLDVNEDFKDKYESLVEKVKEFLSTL

| SMILES | ENZYMATIC ASSAY (Activation/Inhibition) (dCK-C3S-S74E [1]) | IC50 (dCK-C3S-S74E [2]; [dCK] = 100 nM) | IC50 (CCRF-CEM cell line; [4]) | THERMAL SHIFT ASSAY +Tm (°) (dCK-C3S-S74E [3]) | IC50 (dCK-C3S-S74E [2]; [dCK] = 50 nM (footnote A)) | IC50 (CCRF-CEM cell line; [5]) | ΔTm (º) (TSA) (dCK-C3S-S74E [3]) |
| --- | --- | --- | --- | --- | --- | --- | --- |
| Cc1ccc(-c2ccc(O)cc2)cc1Nc1nc(-c2nccc(N)n2)cs1 [OR0320] | A/I | 1760 ± 385 nM | 6770 ± 2810 nM | 15.0 ± 0.2 ° |  |  |  |
| COc1cc(-c2ccc(C)c(Nc3nc(-c4nccc(N)n4)cs3)c2)ccc1O [OR0321] | A/I | 2270 ± 293 nM | 8290 ± 2710 nM | 13.3 ± 0.2 ° |  |  |  |
| Cc1ccc(-c2ccc(CCCN3CCN(C)CC3)cc2)cc1Nc1nc(-c2nccc(N)n2)cs1 [OR0331] | A/I | 401 ± 28 nM | 918 ± 107 nM | 19.4 ± 0.4 ° |  |  |  |
| CCCN(c1nc(-c2nccc(N)n2)cs1)c1cc(-c2ccc(OCCN3CCN(C)CC3)cc2)ccc1C [OR0596] | I | 286 ± 145 nM | 307 ± 50 nM | 18.9 ± 0.1 ° |  |  |  |
| CCCN(c1nc(-c2nccc(N)n2)cs1)c1cc(-c2ccc(CCCN3CCN(C)CC3)cc2)ccc1C [OR0598] | I | 301 ± 78 nM | 776 ± 206 nM | 19.1 ± 0.2 ° |  |  |  |
| CCCN(c1nc(-c2nccc(N)n2)cs1)c1cc(-c2ccc(CCN3CCN(C)CC3)nc2)ccc1C [OR0599] | I | 211 ± 52 nM | 136 ± 53 nM | 17.1 ± 0.2 ° |  |  |  |
| CCCN(c1nc(-c2nc(N)cc(N)n2)cs1)c1cc(-c2ccc(CCCN3CCN(C)CC3)cc2)ccc1C [OR0601] | I | 137 ± 3 nM | 420 ± 83 nM | 20.8 ± 0.7 ° |  |  |  |
| Cc1ccc(-c2ccc(CCN3CCN(C)CC3)cc2)cc1N(CC(C)C)c1nc(-c2nc(N)cc(N)n2)cs1 [OR0603] | I |  | 255 ± 70 nM | 21.3 ± 0.8 ° | 149 ± 44 nM |  |  |
| Cc1ccc(-c2ccc(OCCN3CCN(C)CC3)nc2)cc1N(CC(C)C)c1nc(-c2nc(N)cc(N)n2)cs1 [OR0608] | I |  |  | 21.0 ± 0.5 ° | 106 ± 23 nM | 40 nM | 21.03 º |
| Cc1ccc(-c2ccc(CCN3CCN(C)CC3)cc2)cc1N(CCCN)c1nc(-c2nc(N)cc(N)n2)cs1 [OR0611] | A/I |  |  | 14.7 ± 0.5 ° | 498 ± 119 nM | 11800 nM | 14.67 º |
| CCCN(c1nc(-c2nc(N)cc(N)n2)cs1)c1cc(-c2cnc(N)nc2)ccc1C [OR0613] | I |  |  | 14.5 ± 0.7 ° |  | 703 nM | 14.5 º |
